Tests used:
CT-DNA = assay: UV-Vis absorption titration with CT-DNA; parameters: species or system calf; conditions: intrinsic binding constant, Tris–HCl buffer pH 7.2
Source text: DNA-binding studies are important for the rational design and construction of new and more efficient drugs targeted to DNA.[42] The binding affinity of the ligands and their organoruthenium(II) complexes with CT-DNA can be measured by using UV-Vis spectroscopy. The UV-Vis absorption spectra of the free ligands and their complexes in the absence and presence of CT DNA are given in Fig. S25 ^† and 7. […] The decrease in absorbance with increase in concentration of CT-DNA may be due to the decrease in transition probabilities as a result of partial transfer of electrons from the π orbital of the DNA base pairs to the coupled π* orbital of the coordinated Schiff base to metal due to overlapping.[43] The extent of hypochromism in the charge transfer band is an indication of the strength of intercalative interaction.[43]
In order to compare the DNA-binding affinities of the ligands and their metal complexes quantitatively, their intrinsic binding constants Kbin were obtained according to eqn (S1). ^† The binding constant value was calculated from the plot of [DNA]/(εa − εf) versus [DNA] and the data were given in Table 3 (Fig. 8). […] This may be due to the presence of different substituents in the terminal nitrogen atom of the ligands.
Supplementary Information
All the experiments involving CT-DNA binding were carried out in deionised water with tris(hydroxymethyl)-aminomethane (Tris, 5 mM) and sodium chloride (50 mM) and adjusted to pH 7.2 with hydrochloric acid at room temperature. The concentration of CT-DNA was determined by UV absorbance at 260 nm. Solutions of CT-DNA in Tris-HCl buffer gave a ratio of UV absorbance at 260 and 280 nm, A260/A280, of approximately 1.9, […]
The molar absorption coefficient, ε260, was taken as 6600 M−1 cm−1.Various concentrations of CT-DNA (2-2.5 µM) was added to the complexes (25 µM dissolved in DMSO/Tris-HCl buffer, 1 % DMSO in the final solution). While measuring the absorption spectra, an equal amount of DNA was added to both the test and reference solutions to eliminate the absorbance of DNA itself. Control experiments with DMSO were performed and no change in the spectra of CT-DNA was observed. Absorption spectra were recorded after equilibrium at 20 °C for 10 min. The intrinsic binding constant K b was determined by using following equation(1) [DNA]/[εa-εf]) = [DNA]/[ε b-εf]+1/Kb[εb-εf] (S1)
The absorption coefficients εa, εf and εb correspond to Aobsd/[DNA], the extinction coefficient for the free compound and for the compound in the fully bound form respectively. The slope and the intercept of the linear fit of the plot of [DNA]/[εa −εf] versus [DNA] give […] and 1/Kb[εb−εf] respectively. The intrinsic binding constant Kb can be obtained from the ratio of the slope to the intercept. […]

MCF-7 cells = assay: Lactate dehydrogenase release; format: cell-based, human; conditions: MCF-7, IC50 concentrations, 48 h
Description: (§1) LDH is a stable cytoplasmic enzyme that is released into the culture medium following loss of membrane integrity and serves as a general mean to assess cytotoxicity resulting from chemical compounds or environmental toxic factors.[68] In the present study, LDH leakage into the culture medium of the compounds treated A549 and MCF-7 cells was analyzed. […] The results confirmed the cytotoxic effect of the ligands and complexes on lung and breast cancer cell lines. The compounds could induce LDH leakage as high as that of cisplatin. […] Error bars represent the standard mean error (n = 6).

A549 cells = assay: Lactate dehydrogenase release; format: cell-based, human; conditions: A549, IC50 concentrations, 48 h
Description: as §1

| Compound | Binding constant Kbin (CT-DNA) | LDH release into the culture medium (MCF-7 cells) | LDH release into the culture medium (A549 cells) |
| --- | --- | --- | --- |
| COc1ccc2[c]3c(c(=O)oc2c1)C(C)=[N+]1N=C(Nc2ccccc2)[S][Ru-4]31([C]#[O+])([P+](c1ccccc1)(c1ccccc1)c1ccccc1)[P+](c1ccccc1)(c1ccccc1)c1ccccc1 [Complex 4, [Ru(7MAC-ptsc)(CO)(PPh3)2]] | 1.0636 ± 0.334 × 10^6 M^−1 | – | – |
| CCNC1=N[N+]2=C(C)c3[c](c4ccc(OC)cc4oc3=O)[Ru-4]2([C]#[O+])([P+](c2ccccc2)(c2ccccc2)c2ccccc2)([P+](c2ccccc2)(c2ccccc2)c2ccccc2)[S]1 [Complex 3, [Ru(7MAC-etsc)(CO)(PPh3)2]] | 1.4428 ± 0.279 × 10^6 M^−1 | more potent in inducing LDH leakage into the culture than the rest | more potent in inducing LDH leakage into the culture than the rest |
| COc1ccc2[c]3c(c(=O)oc2c1)C(C)=[N+]1N=C(N)[S][Ru-4]31([C]#[O+])([P+](c1ccccc1)(c1ccccc1)c1ccccc1)[P+](c1ccccc1)(c1ccccc1)c1ccccc1 [Complex 1, [Ru(7MAC-tsc)(CO)(PPh3)2]] | 1.2544 ± 0.304 × 10^6 M^−1 | – | – |
| CNC1=N[N+]2=C(C)c3[c](c4ccc(OC)cc4oc3=O)[Ru-4]2([C]#[O+])([P+](c2ccccc2)(c2ccccc2)c2ccccc2)([P+](c2ccccc2)(c2ccccc2)c2ccccc2)[S]1 [Complex 2, [Ru(7MAC-mtsc)(CO)(PPh3)2]] | 1.3958 ± 0.320 × 10^6 M^−1 | – | – |
